Assay [1] concerns the target Sodium-dependent dopamine transporter (Rattus norvegicus) (UniProt P23977). Nature of the assay: The compound was tested for inhibition of dopamine reuptake.
Assay [2] is described as follows: Sigma opioid receptor type 2 affinity in rat liver by employing [3H]ditolylguanidine as radioligand.
The nature of assay [3]: Sigma opioid receptor type 1 affinity in guinea pig brain by employing [3H](+)-pentazocine as radioligand.

For six molecules, IC50 and Ki results are on record in BindingDB's records for doi:10.1021/jm010992z (Pharmazeutisches Institut Der Universität Freiburg, 2002).

Bounds are passed on as bounds.

Sodium-dependent dopamine transporter (Rattus norvegicus), sequence (P23977 whole entry, looked up): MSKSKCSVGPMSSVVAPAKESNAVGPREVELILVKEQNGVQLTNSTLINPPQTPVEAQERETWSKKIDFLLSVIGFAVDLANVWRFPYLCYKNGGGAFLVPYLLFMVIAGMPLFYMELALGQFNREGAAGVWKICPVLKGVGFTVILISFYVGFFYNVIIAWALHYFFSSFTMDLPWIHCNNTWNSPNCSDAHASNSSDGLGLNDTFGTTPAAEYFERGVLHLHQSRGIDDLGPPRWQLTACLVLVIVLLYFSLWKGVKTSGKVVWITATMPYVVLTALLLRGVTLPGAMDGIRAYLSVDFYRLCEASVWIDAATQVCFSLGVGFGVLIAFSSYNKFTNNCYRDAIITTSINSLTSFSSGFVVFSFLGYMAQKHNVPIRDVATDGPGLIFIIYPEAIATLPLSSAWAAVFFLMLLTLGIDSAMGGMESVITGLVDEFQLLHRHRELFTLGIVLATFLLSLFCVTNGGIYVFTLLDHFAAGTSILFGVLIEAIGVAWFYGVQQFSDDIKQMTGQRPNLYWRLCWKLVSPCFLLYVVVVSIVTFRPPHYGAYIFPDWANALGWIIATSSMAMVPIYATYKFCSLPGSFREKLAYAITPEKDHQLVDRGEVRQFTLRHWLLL

`COC1Cc2ccccc2C2(CCN(CCCc3ccccc3)CC2)O1` (stereo not given) came in with a half-maximal inhibitory concentration (IC50) in assay [1] of 1600 nM.
The molecule `COC1OC2(CCN(Cc3ccccc3)CC2)c2ccccc21` (stereo not given) [1'-benzyl-3-methoxyspiro[1,3-dihydroisobenzofuran-1,4'-(hexahydropyridine)]] yielded an IC50 in assay [1] of more than 10000 nM.
For `OC1Cc2ccccc2C2(CCN(CCc3ccccc3)CC2)O1` (stereo not given) [1'-phenethylspiro[3,4-dihydro-1H-isochromene-1,4'-(hexahydropyridine)]-3-ol], the inhibition constant Ki worked out at 107 nM in assay [2] and 44 nM in assay [3].
Taken in the same sequence, the figures for `COC1Cc2ccccc2C2(CCN(CCCCc3ccccc3)CC2)O1` (stereo not given) [1-[3-methoxyspiro[3,4-dihydro-1H-isochromene-1,4'-(hexahydropyridine)]-1-yl]-4-phenylbutane] were 311 nM and 10 nM.
For `COC1Cc2ccccc2C2(CCN(C/C=C/c3ccccc3)CC2)O1` (stereo not given) [3-[3-methoxyspiro[3,4-dihydro-1H-isochromene-1,4'-(hexahydropyridine)]-1-yl]-1-phenyl-(E)-1-propene], the Ki was 4000 nM in assay [2] and 13 nM in assay [3].
Regarding `COC1Cc2ccccc2C2(CCN(C)CC2)O1` (stereo not given) [3-methoxy-1'-methylspiro[3,4-dihydro-1H-isochromene-1,4'-(hexahydropyridine)]], the Ki is more than 10000 nM in assay [2] and 4400 nM in assay [3].
